Test results published in the supplement of paper PMC10307832.

Key:
Assay in all cases: relative viability (nuclei count vs DMSO), 5 days (fraction); higher = more cells survive
H3255 = test system: H3255
Method in brief: (§1)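 Lung cancer cell lines were seeded in 1536-well plates and dosed by pin tool the next day, with either a single drug or a fixed anchor-drug dose combined with five library-drug doses (not always all listed) spaced in √10 steps. Five days later, one step fixed the cells and stained their nuclei (final 0.05% Triton X-100, 1% formaldehyde, 1 ug/ml Hoechst), and nuclei were counted on 4× images. Relative viability is the nuclei count in treated wells divided by the count in vehicle wells, and each value is the median of duplicate plates.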

COR-L 105 = test system: COR-L 105
Method in brief: as §1

SK-MES-1 = test system: SK-MES-1
Method in brief: as §1

EMC-BAC-2 = test system: EMC-BAC-2
Method in brief: as §1

NCI-H1734 = test system: NCI-H1734
Method in brief: as §1

A-427 = test system: A-427
Method in brief: as §1

NCI-H441 = test system: NCI-H441
Method in brief: as §1

NCI-H23 = test system: NCI-H23
Method in brief: as §1

PC-3 [JPC-3] = test system: PC-3 [JPC-3]
Method in brief: as §1

LOU-NH91 = test system: LOU-NH91
Method in brief: as §1

ChaGo-K-1 = test system: ChaGo-K-1
Method in brief: as §1

NCI-H1975 = test system: NCI-H1975
Method in brief: as §1

NCI-H1755 = test system: NCI-H1755
Method in brief: as §1

NCI-H2170 = test system: NCI-H2170
Method in brief: as §1

LK-2 = test system: LK-2
Method in brief: as §1

NCI-H596 = test system: NCI-H596
Method in brief: as §1

NCI-H1666 = test system: NCI-H1666
Method in brief: as §1

HCC-366 = test system: HCC-366
Method in brief: as §1

EKVX = test system: EKVX
Method in brief: as §1

NCI-H520 = test system: NCI-H520
Method in brief: as §1

NCI-H1563 = test system: NCI-H1563
Method in brief: as §1

SW 900 = test system: SW 900
Method in brief: as §1

How did the relative viability (H3255; first compound 0.08 µM) turn out when O=c1cc(-c2cccc3c2Sc2ccccc2S3)oc(N2CCOCC2)c1 + Cc1nc(Nc2ncc(C(=O)Nc3c(C)cccc3Cl)s2)cc(N2CCN(CCO)CC2)n1 [Dasatinib] (partner 0.075 µM) was run?
The relative viability was 0.334.

What about the relative viability (H3255; first compound 0.253 µM) of the same compound?
Its relative viability is 0.288.

And the relative viability (H3255; first compound 0.8 µM)?
The relative viability was 0.363.

And the relative viability (H3255; first compound 2.53 µM)?
The relative viability was 0.342.

What about the relative viability (H3255; first compound 8 µM) of the same compound?
Its relative viability is 0.556.

And the relative viability (COR-L 105; first compound 0.08 µM)?
The relative viability was 0.311.

What about the relative viability (COR-L 105; first compound 0.253 µM) of the same compound?
The relative viability was 0.311.

What about the relative viability (COR-L 105; first compound 0.8 µM) of the same compound?
The relative viability was 0.326.

And the relative viability (COR-L 105; first compound 2.53 µM)?
Its relative viability is 0.356.

What about the relative viability (COR-L 105; first compound 8 µM) of the same compound?
Its relative viability is 0.31.

And the relative viability (SK-MES-1; first compound 0.08 µM)?
The relative viability was 0.335.

And the relative viability (SK-MES-1; first compound 0.253 µM)?
Its relative viability is 0.256.

What about the relative viability (SK-MES-1; first compound 0.8 µM) of the same compound?
Its relative viability is 0.312.

And the relative viability (SK-MES-1; first compound 2.53 µM)?
Its relative viability is 0.317.

What about the relative viability (SK-MES-1; first compound 8 µM) of the same compound?
Its relative viability is 0.289.

And the relative viability (EMC-BAC-2; first compound 0.08 µM)?
The relative viability was 0.252.

What about the relative viability (EMC-BAC-2; first compound 0.253 µM) of the same compound?
The relative viability was 0.368.

What about the relative viability (EMC-BAC-2; first compound 0.8 µM) of the same compound?
The relative viability was 0.306.

And the relative viability (EMC-BAC-2; first compound 2.53 µM)?
Its relative viability is 0.303.

And the relative viability (EMC-BAC-2; first compound 8 µM)?
The relative viability was 0.399.

And the relative viability (NCI-H1734; first compound 0.08 µM)?
The relative viability was 0.469.

And the relative viability (NCI-H1734; first compound 0.253 µM)?
The relative viability was 0.49.

What about the relative viability (NCI-H1734; first compound 0.8 µM) of the same compound?
The relative viability was 0.503.

And the relative viability (NCI-H1734; first compound 8 µM)?
Its relative viability is 0.513.

What about the relative viability (A-427; first compound 0.08 µM) of the same compound?
Its relative viability is 0.695.

What about the relative viability (A-427; first compound 0.253 µM) of the same compound?
Its relative viability is 0.871.

And the relative viability (A-427; first compound 0.8 µM)?
The relative viability was 0.744.

And the relative viability (A-427; first compound 8 µM)?
Its relative viability is 0.884.

What about the relative viability (NCI-H441; first compound 0.08 µM) of the same compound?
The relative viability was 0.599.

And the relative viability (NCI-H441; first compound 0.253 µM)?
The relative viability was 0.586.

And the relative viability (NCI-H441; first compound 0.8 µM)?
The relative viability was 0.7.

And the relative viability (NCI-H441; first compound 2.53 µM)?
The relative viability was 0.502.

What about the relative viability (NCI-H441; first compound 8 µM) of the same compound?
Its relative viability is 0.658.

What about the relative viability (NCI-H23; first compound 0.08 µM) of the same compound?
Its relative viability is 0.721.

And the relative viability (NCI-H23; first compound 0.253 µM)?
The relative viability was 0.716.

What about the relative viability (NCI-H23; first compound 0.8 µM) of the same compound?
Its relative viability is 0.783.

What about the relative viability (NCI-H23; first compound 2.53 µM) of the same compound?
Its relative viability is 0.702.

And the relative viability (NCI-H23; first compound 8 µM)?
The relative viability was 0.86.

And the relative viability (PC-3 [JPC-3]; first compound 0.08 µM)?
The relative viability was 1.

And the relative viability (PC-3 [JPC-3]; first compound 0.253 µM)?
The relative viability was 0.949.

And the relative viability (PC-3 [JPC-3]; first compound 0.8 µM)?
The relative viability was 1.07.

And the relative viability (PC-3 [JPC-3]; first compound 2.53 µM)?
The relative viability was 0.828.

And the relative viability (PC-3 [JPC-3]; first compound 8 µM)?
Its relative viability is 1.05.

What about the relative viability (LOU-NH91; first compound 0.08 µM) of the same compound?
The relative viability was 0.589.

And the relative viability (LOU-NH91; first compound 0.253 µM)?
The relative viability was 0.558.

What about the relative viability (LOU-NH91; first compound 0.8 µM) of the same compound?
Its relative viability is 0.523.

And the relative viability (LOU-NH91; first compound 2.53 µM)?
Its relative viability is 0.519.

What about the relative viability (LOU-NH91; first compound 8 µM) of the same compound?
Its relative viability is 0.559.

And the relative viability (ChaGo-K-1; first compound 0.08 µM)?
The relative viability was 0.499.

What about the relative viability (ChaGo-K-1; first compound 0.253 µM) of the same compound?
Its relative viability is 0.568.

And the relative viability (ChaGo-K-1; first compound 0.8 µM)?
Its relative viability is 0.585.

What about the relative viability (ChaGo-K-1; first compound 2.53 µM) of the same compound?
Its relative viability is 0.454.

What about the relative viability (ChaGo-K-1; first compound 8 µM) of the same compound?
The relative viability was 0.674.

And the relative viability (NCI-H1975; first compound 0.08 µM)?
The relative viability was 0.355.

And the relative viability (NCI-H1975; first compound 0.253 µM)?
The relative viability was 0.35.

And the relative viability (NCI-H1975; first compound 0.8 µM)?
The relative viability was 0.219.

And the relative viability (NCI-H1975; first compound 2.53 µM)?
The relative viability was 0.239.

What about the relative viability (NCI-H1975; first compound 8 µM) of the same compound?
The relative viability was 0.326.

What about the relative viability (NCI-H1755; first compound 0.08 µM) of the same compound?
Its relative viability is 0.434.

What about the relative viability (NCI-H1755; first compound 0.253 µM) of the same compound?
Its relative viability is 0.44.

What about the relative viability (NCI-H1755; first compound 0.8 µM) of the same compound?
Its relative viability is 0.416.

And the relative viability (NCI-H1755; first compound 2.53 µM)?
The relative viability was 0.324.

And the relative viability (NCI-H1755; first compound 8 µM)?
Its relative viability is 0.381.

And the relative viability (NCI-H2170; first compound 0.08 µM)?
Its relative viability is 0.494.

And the relative viability (NCI-H2170; first compound 0.253 µM)?
Its relative viability is 0.571.

And the relative viability (NCI-H2170; first compound 0.8 µM)?
The relative viability was 0.611.

And the relative viability (NCI-H2170; first compound 2.53 µM)?
Its relative viability is 0.477.

And the relative viability (NCI-H2170; first compound 8 µM)?
Its relative viability is 0.564.

What about the relative viability (LK-2; first compound 0.08 µM) of the same compound?
Its relative viability is 0.306.

What about the relative viability (LK-2; first compound 0.253 µM) of the same compound?
The relative viability was 0.252.

What about the relative viability (LK-2; first compound 0.8 µM) of the same compound?
Its relative viability is 0.267.

And the relative viability (LK-2; first compound 2.53 µM)?
The relative viability was 0.145.

What about the relative viability (LK-2; first compound 8 µM) of the same compound?
Its relative viability is 0.263.

And the relative viability (NCI-H596; first compound 0.08 µM)?
Its relative viability is 0.662.

What about the relative viability (NCI-H596; first compound 0.253 µM) of the same compound?
Its relative viability is 0.636.

What about the relative viability (NCI-H596; first compound 0.8 µM) of the same compound?
Its relative viability is 0.541.

What about the relative viability (NCI-H596; first compound 2.53 µM) of the same compound?
Its relative viability is 0.504.

And the relative viability (NCI-H596; first compound 8 µM)?
The relative viability was 0.594.

What about the relative viability (NCI-H1666; first compound 0.08 µM) of the same compound?
Its relative viability is 0.787.

What about the relative viability (NCI-H1666; first compound 0.253 µM) of the same compound?
Its relative viability is 0.781.

What about the relative viability (NCI-H1666; first compound 0.8 µM) of the same compound?
Its relative viability is 0.851.

And the relative viability (NCI-H1666; first compound 2.53 µM)?
Its relative viability is 0.768.

What about the relative viability (NCI-H1666; first compound 8 µM) of the same compound?
The relative viability was 0.789.

What about the relative viability (HCC-366; first compound 0.08 µM) of the same compound?
The relative viability was 0.633.

And the relative viability (HCC-366; first compound 0.253 µM)?
Its relative viability is 0.718.

And the relative viability (HCC-366; first compound 0.8 µM)?
The relative viability was 0.547.

And the relative viability (HCC-366; first compound 2.53 µM)?
Its relative viability is 0.666.

What about the relative viability (HCC-366; first compound 8 µM) of the same compound?
Its relative viability is 0.767.

What about the relative viability (EKVX; first compound 0.08 µM) of the same compound?
The relative viability was 0.605.

And the relative viability (EKVX; first compound 0.253 µM)?
The relative viability was 0.517.

What about the relative viability (EKVX; first compound 0.8 µM) of the same compound?
The relative viability was 0.315.

And the relative viability (EKVX; first compound 2.53 µM)?
The relative viability was 0.501.

What about the relative viability (EKVX; first compound 8 µM) of the same compound?
Its relative viability is 0.355.

And the relative viability (NCI-H520; first compound 0.08 µM)?
The relative viability was 0.181.

And the relative viability (NCI-H520; first compound 0.253 µM)?
The relative viability was 0.258.

And the relative viability (NCI-H520; first compound 0.8 µM)?
The relative viability was 0.194.

What about the relative viability (NCI-H520; first compound 2.53 µM) of the same compound?
The relative viability was 0.172.

What about the relative viability (NCI-H520; first compound 8 µM) of the same compound?
Its relative viability is 0.213.

And the relative viability (NCI-H1563; first compound 0.08 µM)?
The relative viability was 0.473.

And the relative viability (NCI-H1563; first compound 0.253 µM)?
Its relative viability is 0.454.

And the relative viability (NCI-H1563; first compound 0.8 µM)?
The relative viability was 0.437.

And the relative viability (NCI-H1563; first compound 2.53 µM)?
The relative viability was 0.366.

What about the relative viability (NCI-H1563; first compound 8 µM) of the same compound?
The relative viability was 0.467.

And the relative viability (SW 900; first compound 0.08 µM)?
Its relative viability is 0.503.

And the relative viability (SW 900; first compound 0.253 µM)?
The relative viability was 0.919.

And the relative viability (SW 900; first compound 0.8 µM)?
The relative viability was 0.352.

What about the relative viability (SW 900; first compound 2.53 µM) of the same compound?
Its relative viability is 0.44.

What about the relative viability (SW 900; first compound 8 µM) of the same compound?
The relative viability was 0.538.
